According to patent US20060229358A1, “Pharmaceutical composition containing flavonoids” (Taipei Medical University, priority 2005, published 2006):

What follows are compounds tested against PDE5 (Cavia porcellus, UniProt H0VD23) (assay: Inhibition of cyclic nucleotide PDE activity (Assay I), PDE5). Settings: not given.
Type: biochemical, guinea pig
Experimental: Under a protocol approved by the Animal Care and Use Committee of Taipei Medical University, five male guinea pigs (Hartley), weighing 500-600 g, were sacrificed. The lungs (15 g) or hearts (4 g) taken therefrom were chopped into small pieces and homogenized with a glass/teflon homogenizer (Glas-Col, Terre Haute, Ind., USA) in 10 volumes of cold medium (pH 6.5) containing 20 mM Bis-Tris, 2 mM benzamidine, 2 mM EDTA, 50 mM sodium chloride, 0.1 mM phenylmethanesulfonyl fluoride (PMSF), and 1 mM dithiothreitol. At 4° C., the homogenate was centrifuged at 170 g for 15 min, and the supernatant thereof was then re-centrifuged at 40,000 g for 30 min. […] The column was washed with two bed volumes of homogenate buffer to remove unbound material, where the resin beads therein will bind with proteins, such as PDE proteins. […] And then the samples were frozen at −70° C.
In order to eliminate possible contamination of PDE5 by PDE1, the above-collected fractions with enzyme activity was further purified on a calmodulin-agarose column. The column (1.6 cm×4 cm) was pre-equilibrated by a buffer A, which contains 20 mM Bis-tris, 1 mM dithiothreitol, 2 mM benzamidine, 50 mM NaCl, 3 mMMgCl2, 0.1 mM CaCl2, and 0.1 mM PMSF, pH 6.5. The sample (the mixture of PDE5 and PDE1), being purified by the above-mentioned column, with the CaCl2 concentration thereof adjusted to at least 2 mM previously, was loaded and allowed to be absorbed on the gel for 30 min. Then, the PDE isozymes were eluted by stepwise elution using 20 ml of buffer A with 1 M NaCl followed by 20 ml of buffer A with 1 M NaCl and with 1 mM EGTA.
The activities of PDE1-5 in the homogenate were measured with a two-step procedure according to the method of Thompson and Appleman, using cAMP with [^3H]-cAMP or cGMP with [^3 H]-cGMP as substrates. The PDE enzyme prepared (25 μl) with 10 μl inhibitor or the solvents therefor was incubated for 30 min at 37° C. in a total assay buffer, where the final volume of the assay is amounted to 100 μl. In accordance with the features of the PDE isozymes, the assay buffer contains 50 mM Tris/HCl (pH 7.4), 3 mM MgCl2, 1 mM dithiothreitol, and 0.05% BSA, and optionally contains 1 uM cAMP with 0.2 μCi [^3H]-cAMP as a substrate alone or in the presence of 0.1 unit calmodulin with 10 μM CaCl2, or 5 μM cGMP, and 1 μM cGMP with 0.2 μCi [^3H]-cGMP as another substrate alone or in the presence of 0.1 unit calmodulin with 10 μM CaCl2.
The PDE enzyme and the inhibitors (or their solvent) therefor were mixed and incubated on ice for 30 min previously, and then mixed with the assay buffer. The assay was initiated by transferring the mixture to a water bath at 37° C. Following the other 30 min incubation, the reaction was stopped by transferring the reaction vessel to a bath of boiling water for 3 min. After cooling on ice, 20 μl of the 1 mg/ml of Crotalus atrox venom was added to the reaction mixture, and the mixture was incubated at 37° C. for 10 min. The uncatalyzed substrates, such as cAMP, [^3H]-cAMP, cGMP, or [^3H]-cGMP were removed by the addition of 500 μl of a 1-in-1 Tris-HCl (40 mM) buffer suspension of Dowex resin (1×8-200) with incubation on ice for 30 min, since the bindings of the cyclic nucleotides and the resin. Each tube was then centrifuged for 2 min at 6000 rpm, and 100 μl of the supernatant was removed and counted by a β-counter for calculating the enzyme (PDEs) activity.
The IC50 values of flavonoids and various reference drugs were calculated using non-linear regression analysis by the software SigmaPlot 7.0 (Sigma Chemical, St. Louis Mo., USA).
O=c1c(-c2ccc(O)cc2)coc2cc(O)cc(O)c12 [Genistein] gave an IC50 of 73.9 ± 7.1 µM. Work on COc1cc(O)c2c(=O)c(-c3ccc(O)cc3)coc2c1 [Prunetin] yielded an IC50 of over 100 µM.

Same assay, conditions: mean ± S.E.M. (n); read-out: IC50 on phosphodiesterase isozyme 5
With COc1ccc(C2CC(=O)c3c(O)cc(O)cc3O2)cc1O (stereo not drawn) [Hesperetin] the IC50 was over 100 µM. O=c1cc(-c2ccccc2)oc2cc(O)cc(O)c12 [Chrysin] gave an IC50 of over 100 µM. Work on O=c1c(-c2ccc(O)cc2)coc2cc(O)ccc12 [Daidzein] yielded an IC50 of over 100 µM. O=c1c(O)c(-c2cc(O)c(O)c(O)c2)oc2cc(O)cc(O)c12 [Myricetin] was tested, and the IC50 was over 100 µM. In the case of COc1ccc(-c2coc3cc(O)cc(O)c3c2=O)cc1 [Biochanin A], the IC50 is reported as over 100 µM. In the case of O=c1cc(-c2ccc(O)c(O)c2)oc2cc(O[C@@H]3O[C@H](CO)[C@@H](O)[C@H](O)[C@H]3O)cc(O)c12 [Luteolin-7-glucoside], the IC50 is reported as over 100 µM. With O=c1c(O)c(-c2ccc(O)c(O)c2)oc2cc(O)cc(O)c12 [Quercetin] the IC50 was over 100 µM. O=c1cc(-c2ccc(O)c(O)c2)oc2cc(O)cc(O)c12 [Luteolin] showed an IC50 of 19.3 ± 3.2 µM. Compound O=c1cc(-c2ccc(O)cc2)oc2cc(O)cc(O)c12 [Apigenin] has an IC50 of over 100 µM. Work on O=C1CC(c2ccc(O)c(O)c2)Oc2cc(O)cc(O)c21 (stereo not drawn) [Eriodictyol] yielded an IC50 of over 100 µM.
